Reference: US11000033B2, “Ketone or oxime compound, and herbicide” (NISSAN CHEMICAL CORPORATION, priority 2014, dated 2021)

Key:
Type in all cases: in vivo
[1] = test system: Echinochloa oryzacola Vasing.; test: Test Example 2: herbicidal activity, application during weed generation in submerged conditions (symbol A); details: Table 23; application herbicide amount 320 g/ha; grade 0-5 by criteria of Test Example 1
In short: (§1)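 Visual herbicidal ratings, taken three weeks after dosing, reflect post-emergence water-surface application to seedlings at one to two leaves. Conditions: co-sown weeds in alluvial soil flooded to 4 cm, greenhouse held at 25° C. to 30° C.; compound given as water-diluted emulsion at a fixed herbicide amount.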

Setaria viridis = test: Test Example 4: herbicidal effect by soil treatment (symbol G)
In short: (§2)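 Seeds were sown in sterilized diluvial soil, covered with about 1.5 cm of soil, and the soil surface was sprayed with a water-diluted emulsion of the compound at a predetermined rate. Plants grew in a greenhouse at 25° C. to 30° C.; effects were scored visually 3 weeks after application.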

Digitaria ciliaris = test: Test Example 5: herbicidal effect by foliage application, plastic box (symbol F); details: 320 g/ha, 3 weeks after application
In short: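 Sowing in sterilized diluvial soil, 14 days' greenhouse growth at 25° C. to 30° C., then uniform small-sprayer foliar application of aqueous emulsion dilution; plants scored three weeks afterwards.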

rapeseed = test: Test Example 4: effect on crop by soil treatment (symbol g); details: for g: rapeseed, effect grade on crop: 320 g/ha; for g: rapeseed, effect on crop grade: application herbicide amount 320 g/ha
In short: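 Steps: fill box with sterilized diluvial soil; sow seed spot-like; cover with ~1.5 cm soil; grow in greenhouse (25° C. to 30° C.).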

Avena fatua = test: Test Example 4: herbicidal effect by soil treatment (symbol I)
In short: as §2

Monochoria vaginalis = test: Test Example 2: herbicidal activity, application during weed generation in submerged conditions (symbol C); details: Table 23; application herbicide amount 320 g/ha; grade 0-5 by criteria of Test Example 1
In short: as §1

transplanted rice plant = test: Test Example 1: effect on crop, application before weed generation in submerged conditions (symbol a); details: application herbicide amount 320 g/ha
In short: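 Alluvial soil pots flooded to 4 cm water, sown with Echinochloa oryzacola, Scirpus juncoides and Monochoria vaginalis, then transplanted with 2.5 leaf stage rice seedlings; pre-emergence application. Greenhouse 25° C. to 30° C.; scored 0–5 by herbicidal ratio 3 weeks after application.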

corn = test: Test Example 5: effect on crop by foliage application, plastic box (symbol c); details: 320 g/ha, 3 weeks after application
In short: (§3)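 Soil: sterilized diluvial. Container: plastic box, 21 × 13 cm, 7 cm deep. Sowing: spot-like, ~1.5 cm cover. Growth: greenhouse, 25° C. to 30° C.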

wheat = test: Test Example 5: effect on crop by foliage application, plastic box (symbol e); details: 320 g/ha, 3 weeks after application
In short: as §3

[2] = test system: directly sowed rice plant; test: Test Example 3: effect on crop by foliage application, Wagner pot (symbol b); details: application herbicide amount 320 g/ha
In short: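 Steps: fill a 1/10000-are Wagner pot with alluvial soil; add water and mix to submerge at 0.1–0.5 cm depth; sow rice plus Echinochloa crus-galli var. crus-galli, Leptochloa chinensis and Cyperus difformis; grow in a 25–30 °C greenhouse.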

[3] = test system: Echinochloa oryzacola Vasing.; test: Test Example 1: herbicidal activity, application before weed generation in submerged conditions (symbol A); details: application herbicide amount 320 g/ha
In short: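 Flooded alluvial soil (4 cm water) was mixed-sown with the three weed species, and 2.5-leaf rice seedlings were transplanted. On sowing day, a water-diluted emulsion at a predetermined rate was applied to the water surface. After 3 weeks in a 25–30 °C greenhouse, effect was scored 0–5.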

[4] = application herbicide amount 320 g/ha

Row | Structure (SMILES) | Herbicidal effect grade, A: Echinochloa oryzacola Vasing. [1] | G: Setaria viridis, herbicidal effect grade (Setaria viridis; 320 g/ha) | F: Digitaria ciliaris, herbicidal effect grade (Digitaria ciliaris) | g: rapeseed, effect grade on crop (rapeseed) | I: Avena fatua, herbicidal effect grade (Avena fatua; 320 g/ha) | Herbicidal effect grade, C: Monochoria vaginalis (Monochoria vaginalis) | Effect grade on crop, a: transplanted rice plant (transplanted rice plant) | c: corn, effect on crop grade (corn) | e: wheat, effect on crop grade (wheat) | effect on crop b (directly sowed rice plant), grade 0-5 [2] | Herbicidal effect grade, A: Echinochloa oryzacola Vasing. [3] | G: Setaria viridis, herbicidal effect grade (Setaria viridis; [4]) | g: rapeseed, effect on crop grade (rapeseed) | I: Avena fatua, herbicidal effect grade (Avena fatua; [4])
1 | CON=C(C)CC1CC(OS(=O)(=O)c2ccc(C)cc2)=C(c2c(C)cc(C)cc2C)C1=O (centres unmarked) [1-161] | 5 (Herbicidal ratio of 90% or more (almost completely withered)) | 0 (Herbicidal ratio of 5% or lower (almost no effect)) | 4 (Herbicidal ratio of 70% or higher and lower than 90%) | 2 (Herbicidal ratio of 20% or higher and lower than 40%) | 0 (Herbicidal ratio of 5% or lower (almost no effect)) | 3 (Herbicidal ratio of 40% or higher and lower than 70%) | 4 (Herbicidal ratio of 70% or higher and lower than 90%) | 1 (Herbicidal ratio of 5% or higher and lower than 20%) | 2 (Herbicidal ratio of 20% or higher and lower than 40%) | 5 (Herbicidal ratio of 90% or more (almost completely withered)) | 5 (Herbicidal ratio of 90% or more (almost completely withered)) | – | – | –
2 | CON=C(C)CC1CC(OC(=O)c2ccc(S(C)(=O)=O)c(C(=O)OC)c2Cl)=C(c2c(C)cc(C)cc2C)C1=O (centres unmarked) [1-162] | 5 (Herbicidal ratio of 90% or more (almost completely withered)) | 5 (Herbicidal ratio of 90% or more (almost completely withered)) | 5 (Herbicidal ratio of 90% or more (almost completely withered)) | 4 (Herbicidal ratio of 70% or higher and lower than 90%) | 3 (Herbicidal ratio of 40% or higher and lower than 70%) | 2 (Herbicidal ratio of 20% or higher and lower than 40%) | 5 (Herbicidal ratio of 90% or more (almost completely withered)) | 4 (Herbicidal ratio of 70% or higher and lower than 90%) | 5 (Herbicidal ratio of 90% or more (almost completely withered)) | 5 (Herbicidal ratio of 90% or more (almost completely withered)) | 5 (Herbicidal ratio of 90% or more (almost completely withered)) | – | – | –
3 | CC(=O)C(C(C)=O)C1CC(O)=C(c2c(C)cc(C)cc2C)C1=O (centres unmarked) [2-002] | 0 (Herbicidal ratio of 5% or lower (almost no effect)) | 0 (Herbicidal ratio of 5% or lower (almost no effect)) | 4 (Herbicidal ratio of 70% or higher and lower than 90%) | 0 (Herbicidal ratio of 5% or lower (almost no effect)) | 0 (Herbicidal ratio of 5% or lower (almost no effect)) | 0 (Herbicidal ratio of 5% or lower (almost no effect)) | 0 (Herbicidal ratio of 5% or lower (almost no effect)) | 0 (Herbicidal ratio of 5% or lower (almost no effect)) | 0 (Herbicidal ratio of 5% or lower (almost no effect)) | 0 (Herbicidal ratio of 5% or lower (almost no effect)) | 0 (Herbicidal ratio of 5% or lower (almost no effect)) | – | – | –
4 | COC(=O)C(C(C)=O)C1CC(O)=C(c2c(C)cc(C)cc2C)C1=O (centres unmarked) [2-003] | 0 (Herbicidal ratio of 5% or lower (almost no effect)) | 0 (Herbicidal ratio of 5% or lower (almost no effect)) | 4 (Herbicidal ratio of 70% or higher and lower than 90%) | 0 (Herbicidal ratio of 5% or lower (almost no effect)) | 0 (Herbicidal ratio of 5% or lower (almost no effect)) | 0 (Herbicidal ratio of 5% or lower (almost no effect)) | 0 (Herbicidal ratio of 5% or lower (almost no effect)) | 3 (Herbicidal ratio of 40% or higher and lower than 70%) | 0 (Herbicidal ratio of 5% or lower (almost no effect)) | 4 (Herbicidal ratio of 70% or higher and lower than 90%) | 0 (Herbicidal ratio of 5% or lower (almost no effect)) | – | – | –
5 | CCC(=O)CC1CC(O)=C(c2c(C)cc(C)cc2C)C1=O (centres unmarked) [2-006] | 5 (Herbicidal ratio of 90% or more (almost completely withered)) | – | 3 (Herbicidal ratio of 40% or higher and lower than 70%) | – | – | 2 (Herbicidal ratio of 20% or higher and lower than 40%) | 3 (Herbicidal ratio of 40% or higher and lower than 70%) | 0 (Herbicidal ratio of 5% or lower (almost no effect)) | 0 (Herbicidal ratio of 5% or lower (almost no effect)) | 5 (Herbicidal ratio of 90% or more (almost completely withered)) | 5 (Herbicidal ratio of 90% or more (almost completely withered)) | 5 (Herbicidal ratio of 90% or more (almost completely withered)) | 4 (Herbicidal ratio of 70% or higher and lower than 90%) | 3 (Herbicidal ratio of 40% or higher and lower than 70%)
6 | COCC(=O)CC1CC(O)=C(c2c(C)cc(C)cc2C)C1=O (centres unmarked) [2-007] | 3 (Herbicidal ratio of 40% or higher and lower than 70%) | – | 1 (Herbicidal ratio of 5% or higher and lower than 20%) | – | – | 0 (Herbicidal ratio of 5% or lower (almost no effect)) | 4 (Herbicidal ratio of 70% or higher and lower than 90%) | 1 (Herbicidal ratio of 5% or higher and lower than 20%) | 0 (Herbicidal ratio of 5% or lower (almost no effect)) | 5 (Herbicidal ratio of 90% or more (almost completely withered)) | 3 (Herbicidal ratio of 40% or higher and lower than 70%) | 4 (Herbicidal ratio of 70% or higher and lower than 90%) | 4 (Herbicidal ratio of 70% or higher and lower than 90%) | 0 (Herbicidal ratio of 5% or lower (almost no effect))
7 | CCOC(=O)C(C(=O)c1ccccc1)C1CC(O)=C(c2c(C)cc(C)cc2C)C1=O (centres unmarked) [2-008] | 0 (Herbicidal ratio of 5% or lower (almost no effect)) | – | 2 (Herbicidal ratio of 20% or higher and lower than 40%) | – | – | 0 (Herbicidal ratio of 5% or lower (almost no effect)) | 0 (Herbicidal ratio of 5% or lower (almost no effect)) | 1 (Herbicidal ratio of 5% or higher and lower than 20%) | 0 (Herbicidal ratio of 5% or lower (almost no effect)) | 0 (Herbicidal ratio of 5% or lower (almost no effect)) | 0 (Herbicidal ratio of 5% or lower (almost no effect)) | 0 (Herbicidal ratio of 5% or lower (almost no effect)) | 0 (Herbicidal ratio of 5% or lower (almost no effect)) | 0 (Herbicidal ratio of 5% or lower (almost no effect))
